According to patent US7439035B1, “Method of identifying or characterizing a compound that modulates ribonuclease H activity” (McGill University, priority 2001, dated 2008):

Experiments:
[1] = target: T1, HIV-1 RT associated RNase H (Human immunodeficiency virus type 1 group M subtype B, UniProt P04585); experiment: Gel electrophoretic RNase H assay, inhibition of HIV-1 RT associated RNase H; type: biochemical; conditions: 1.5 nM p51/p66 RT, 100 nM [32P]-RNA/DNA substrate, 37° C., densitometry of undegraded RNA; read-out: IC50 for BBNH obtained with the gel assay
T1 construct: final concentration of 2.5 nM of the p51/p66 RT heterodimer in the assay; made in house
From the text: The gel electrophoretic assay used 5′-[^32P]-RNA of the sequence 5′-GAU CUG AGC CUG GGA GCU-3′ (SEQ ID NO: 7; identical to that of the FRET RNA, but lacking the 3′-fluorescein), prepared by the transfer of ^32P from [γ-^32P]-ATP in a reaction catalyzed by bacteriophage T4 polynucleotide kinase. This 5′[^32P]-RNA oligonucleotide was annealed to complementary unlabeled DNA of the sequence 5′-AGC TCC CAG GCT CAG ATC-3′ (SEQ ID NO: 8) to form the [^32P]-RNA/DNA hybrid duplex substrate. Aliquots of 100 μl of 50 mM Tris/HCl (pH 8.0, 37° C.), containing 60 mM KCl and 2.5 mM MgCl2, 1.5 nM p51/p66 RT and variable amounts of BBNH inhibitor were added to individual microtubes and incubated at 37° C. for 15 minutes. […] The extent of RNase H activity can be determined quantitatively by densitometric analysis of the time-dependent disappearance of the full-length RNA substrate and/or the appearance of the smaller degradation products. In this experiment, the bands corresponding to the undegraded 18 nucleotide 5′-[^32P]-RNA were quantified by densitometry, using the software UN-SCAN-IT (Silk Scientific, Orem, Utah). The IC50 values for BBNH inhibition of HIV-1 RT associated RNase H activity were calculated from plots of the residual undegraded 5′[^32P]-RNA vs. drug concentration.

[2] = target: T1, HIV-1 RT associated RNase H; experiment: FRET RNase H assay, inhibition of HIV-1 RT associated RNase H; type: biochemical; conditions: 1.5 nM p51/p66 RT, 100 nM 3'-fluorescein-RNA/5'-DABCYL-DNA substrate, 37° C., 15 min preincubation; read-out: IC50 for BBNH obtained with the FRET assay
Method: Microplate assay protocol for the measurement of RNase H activity using the RNA/DNA hybrid duplex substrate. Reaction assay mixtures contained 5 μl of a stock solution of 2.5 μM RNA/DNA hybrid duplex substrate added to 85 μl of assay buffer (50 mM Tris, pH 8.0, 37° C., containing 60 mM KCl and 2.5 mM MgCl2), prepared in the wells of a 96-well fluorescence microtiter plate, and warmed to 37° C. using the temperature control of the SpectraMax Gemini XS microplate spectrofluorometer (Molecular Devices). Reactions were started by the addition of 5 μl of a solution of recombinant HIV-1 reverse transcriptase (usually providing a final concentration of 2.5 nM of the p51/p66 RT heterodimer in the assay, and mixing using the automatic mixing function of the microplate spectrofluorometer. The reverse transcriptase for use in this assay was prepared as described by Fletcher R S et al, Single step purification of HIV-1 recombinant wild type and mutant reverse transcriptase, Protein Expression and Purification 7:27-32, 1996. The increase in fluorescence signal resulting from the loss of FRET due to the enzymatic hydrolysis of the RNA strand was measured over suitable time intervals (ranging from 3 minutes to 60 minutes), at an excitation wavelength of 490 nm and an emission wavelength of 528 nm, using a cut-off filter of 515 nm. […]

Compound: CC(C)(C)c1ccc(C(=O)NN=Cc2c(O)ccc3ccccc23)cc1 [BBNH, N-(4-tert-butylbenzoyl)-2-hydroxy-1-naphthaldehyde hydrazone]
- IC50 [1]: 3000 ± 1200 nM
- IC50 [2]: 2600 ± 500 nM
